Data taken from US7723380B2, “Antiviral protease inhibitors” (Gilead Sciences, Inc., priority 2006, dated 2010).
pKi: −log10 of the molar value.

Target: T1, recombinant HIV-1 protease expressed in E. Coli (Human immunodeficiency virus type 1 group M subtype B, UniProt P04585)
T1 construct: Enzyme: recombinant HIV-1 protease expressed in E. Coli; purchased Bachem California, Inc. (Torrance, Calif.) H-9040; host or cells: E. coli
Assay: HIV-1 Protease Enzyme Assay (Ki), fluorimetric detection of hexapeptide substrate cleavage
Format: biochemical
Conditions: recombinant HIV-1 protease 1 to 2.5 nM, substrate 40 μM, pH 5.3, 37° C., tight-binding competitive inhibition
Description: Biological Assays Used for the Characterization of HIV Protease Inhibitors HIV-1 Protease Enzyme Assay (Ki)
The assay is based on the fluorimetric detection of synthetic hexapeptide substrate cleavage by HIV-1 protease in a defined reaction buffer as initially described by M. V. Toth and G. R. Marshall, Int. J. Peptide Protein Res. 36, 544 (1990)
Substrate: (2-aminobenzoyl)Thr-Ile-Nle-(p-nitro)Phe-Gln-Arg
Substrate supplied by Bachem California, Inc. (Torrance, Calif.; Cat. no. H-2992)
Enzyme: recombinant HIV-1 protease expressed in E. Coli
Enzyme supplied by Bachem California, Inc. (Torrance, Calif.; Cat. no. H-9040)
Reaction buffer: 100 mM ammonium acetate, pH 5.3
• 1 M sodium chloride • 1 mM ethylendiaminetetraacetic acid • 1 mM dithiothreitol • 10% dimethylsulfoxide Assay Protocol for the Determination of Inhibition Constant Ki: • 1. Prepare series of solutions containing identical amount of the enzyme (1 to 2.5 nM) and a tested inhibitor at different concentrations in the reaction buffer • 2. Transfer the solutions (190 μL each) into a white 96-well plate • 3. Preincubate for 15 min at 37° C. • 4. Solubilize the substrate in 100% dimethylsulfoxide at a concentration of 800 μM. Start the reaction by adding 10 μL of 800 μM substrate into each well (final substrate concentration of 40 μM) • 5. […]

## CCOP(=O)(COc1ccc(C[C@H](NC(=O)O[C@H]2CO[C@H]3OCC[C@H]32)[C@@H](O)CN(Cc2ccc(-c3ccccn3)cc2)NC(=O)[C@@H](NC(=O)OC)C(C)(C)C)cc1)OCC [Example AY]
  pKi: > 10.52
